The target in test [1] is T1, human H3 receptor (Homo sapiens, UniProt Q9Y5N1).
T1 construct: expressed in transfected cells
As to the kind of experiment: In vitro H3 binding assay (3H-N-α-methyl-histamine competition binding). The following applies: membranes of CHO-K1 cells expressing human H3 receptor; 2 nM 3H-NαMH; read-out: hH3 binding IC50. In a few lines: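 Membranes from CHO-K1 cells stably expressing human H3 (5 μg/well) incubated 1 h at room temperature with compound and 2 nM ³H-NαMH in 50 mM Tris-HCl pH 7.4, 5 mM MgCl2; non-specific binding defined with 1 μM RαMH. Bound radioactivity measured by filtration and scintillation; IC50 from seven-point curves by variable-slope sigmoidal regression.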

Test [2] deals with T1, human H3 receptor. As to the kind of experiment: In vitro H3 functional assay (cAMP response element driven luciferase reporter). The following applies: CHO(dhfr+)-cre-luc cells expressing human H3 receptor; RαMH 10 nM, forskolin 1 μM; read-out: hH3 functional IC50. It is filed as cell-based. How it is done:
The functional activity of compounds at the H3 receptor was determined by measuring changes in the level of intracellular cAMP using a cAMP response element driven luciferase reporter assay. The changes in luciferase expression were monitored by a luminescence plate reader, Analyst HT (MDS Analytical). Increases in intracellular cAMP were readily detected upon activation of protein kinase A by forskolin (Sigma) and suppression of this response observed with the application of the H3 receptor agonist RαMH (Sigma).
CHO(dhfr^+)-cre-luc cells stably expressing human H3 receptor were routinely grown as monolayers in Minimal Essential Medium α (MEMα) (Invitrogen) supplemented with 10% dialysed FBS (Hyclone), in 5% CO2 at 37° C. 48 hours prior to assay, cells were seeded in clear-base white walled 384-well plates (Corning) at a density of 5000 cells/well. On the day of assay, growth media was removed and replaced with […] of assay buffer (MEMα, 5 mg/ml fatty acid free BSA (Sigma)) per well. Cells were then incubated for 30 minutes at 37° C., 5% CO2. Compound was serially diluted in DMSO before being diluted 1:10 with assay buffer. 2.5 of compound diluted in assay buffer was added and cells incubated for 5 minutes at 37° C., 5% CO2. 2.5 μl of each reagent was then added in the following order: RαMH (10 nM), isobutylmethylxanthine (1-methyl-3-(2-methylpropyl)-7H-purine-2,6-dione; IBMX) (500 μM) (Sigma) and forskolin (1 μM). Cells were then incubated for 90 minutes at 37° C., 5% CO2, followed by 30 minutes at room temperature. At the end of incubation 25 μl of Steadylite reagent (Perkin Elmer) was added, plates were sealed and placed on a shaker for 5 minutes. The level of light output to determine the level of luciferase expression was then measured.
IC50 values for compounds were determined from ten point half log scale dose-response studies and represent the concentration of compound required to […] 50% inhibition of forskolin stimulated cells in the presence of RαMH alone. Curves were generated using the average of duplicate wells for each data point and analyzed using nonlinear regression of four parameter dose response.

SMILES strings stand for the structures.

T1 sequence (Q9Y5N1 whole entry): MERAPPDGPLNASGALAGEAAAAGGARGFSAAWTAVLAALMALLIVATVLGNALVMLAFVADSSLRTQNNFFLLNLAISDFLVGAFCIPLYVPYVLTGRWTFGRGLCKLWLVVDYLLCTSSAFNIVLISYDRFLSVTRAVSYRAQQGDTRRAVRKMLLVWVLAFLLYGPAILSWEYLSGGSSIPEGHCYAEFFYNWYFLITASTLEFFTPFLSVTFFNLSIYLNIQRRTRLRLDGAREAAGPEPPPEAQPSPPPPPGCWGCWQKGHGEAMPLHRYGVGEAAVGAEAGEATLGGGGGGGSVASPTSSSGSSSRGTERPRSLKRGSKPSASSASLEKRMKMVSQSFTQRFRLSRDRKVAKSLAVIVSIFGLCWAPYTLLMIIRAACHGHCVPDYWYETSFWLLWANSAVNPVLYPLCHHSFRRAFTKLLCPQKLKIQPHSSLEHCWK

As to `Cn1nc(CNC(=O)c2ccc3c(c2)CCN(C2CCC2)CC3)c2ccccc21` [Example 73, 3-Cyclobutyl-N-((1-methyl-1H-indazol-3-yl)methyl)-2,3,4,5-tetrahydro-1H-benzo[d]azepine-7-carboxamide], the concentration for half-maximal inhibition (IC50) stood at 12 nM on human H3 receptor [1] and 1 nM at human H3 receptor [2].
Taken in the same sequence, the figures for `O=C(NCc1ccc2[nH]ccc2c1)c1ccc2c(c1)CCN(C1CCC1)CC2` [Example 74, N-((1H-Indol-5-yl)methyl)-3-cyclobutyl-2,3,4,5-tetrahydro-1H-benzo[d]azepine-7-carboxamide] were 3 nM and 1 nM.
Taken in the same sequence, the figures for `Cn1ccc2c(CNC(=O)c3ccc4c(c3)CCN(C3CCC3)CC4)cccc21` [Example 77, 3-Cyclobutyl-N-((1-methyl-1H-indol-4-yl)methyl)-2,3,4,5-tetrahydro-1H-benzo[d]azepine-7-carboxamide] were 3 nM and 1 nM.
The matching figures for `O=C(NCc1nc2ccccc2s1)c1ccc2c(c1)CCN(C1CCC1)CC2` [Example 78, N-(Benzo[d]thiazol-2-ylmethyl)-3-cyclobutyl-2,3,4,5-tetrahydro-1H-benzo[d]azepine-7-carboxamide]: 4 nM and 2 nM.
`Cn1c(CNC(=O)c2ccc3c(c2)CCN(C2CCC2)CC3)nc2ccccc21` [Example 79, 3-Cyclobutyl-N-((1-methyl-1H-benzo[d]imidazol-2-yl)methyl)-2,3,4,5-tetrahydro-1H-benzo[d]azepine-7-carboxamide]: the results for the 50% inhibitory concentration (IC50) at human H3 receptor [1] and on human H3 receptor [2] were 6 nM and 3 nM, respectively.
The matching figures for `O=C(NCc1ccc2nccn2c1)c1ccc2c(c1)CCN(C1CCC1)CC2` [Example 81, 3-Cyclobutyl-N-(imidazo[1,2-a]pyridin-6-ylmethyl)-2,3,4,5-tetrahydro-1H-benzo[d]azepine-7-carboxamide]: 0.4 nM and 0.8 nM.
For `O=C(NCc1nccs1)c1ccc2c(c1)CCN(C1CCC1)CC2` [Example 86, 3-Cyclobutyl-N-(thiazol-2-ylmethyl)-2,3,4,5-tetrahydro-1H-benzo[d]azepine-7-carboxamide], the IC50 on human H3 receptor [1] came out at 3 nM; on human H3 receptor [2], 1 nM.
The matching figures for `O=C(NCc1ccsc1)c1ccc2c(c1)CCN(C1CCC1)CC2` [Example 88, 3-Cyclobutyl-N-(thiophen-3-ylmethyl)-2,3,4,5-tetrahydro-1H-benzo[d]azepine-7-carboxamide]: 5 nM and 2 nM.
The matching figures for `O=C(NCc1ccc(C(F)(F)F)o1)c1ccc2c(c1)CCN(C1CCC1)CC2` [Example 92, 3-cyclobutyl-N-((5-(trifluoromethyl)furan-2-yl)methyl)-2,3,4,5-tetrahydro-1H-benzo[d]azepine-7-carboxamide]: 4 nM and 1 nM.
For the molecule `Cc1c(CNC(=O)c2ccc3c(c2)CCN(C2CCC2)CC3)cnn1C` [Example 97, 3-Cyclobutyl-N-((1,5-dimethyl-1H-pyrazol-4-yl)methyl)-2,3,4,5-tetrahydro-1H-benzo[d]azepine-7-carboxamide], the concentration for half-maximal inhibition (IC50) on human H3 receptor [1] stood at 9 nM; at human H3 receptor [2] it was 2 nM.
On to `CCn1nccc1CNC(=O)c1ccc2c(c1)CCN(C1CCC1)CC2` [Example 100, 3-cyclobutyl-N-((1-ethyl-1H-pyrazol-5-yl)methyl)-2,3,4,5-tetrahydro-1H-benzo[d]azepine-7-carboxamide], for which the concentration for half-maximal inhibition (IC50) at human H3 receptor [1] was 2 nM; on human H3 receptor [2], 0.5 nM.
Taken in the same sequence, the figures for `Cn1ccc(CNC(=O)c2ccc3c(c2)CCN(C2CCC2)CC3)n1` [Example 103, 3-Cyclobutyl-N-((1-methyl-1H-pyrazol-3-yl)methyl)-2,3,4,5-tetrahydro-1H-benzo[d]azepine-7-carboxamide] were 11 nM and 1 nM.
Consider `Cn1nc(CNC(=O)c2ccc3c(c2)CCN(C2CCC2)CC3)cc1-c1ccccc1` [Example 108, 3-Cyclobutyl-N-((1-methyl-5-phenyl-1H-pyrazol-3-yl)methyl)-2,3,4,5-tetrahydro-1H-benzo[d]azepine-7-carboxamide], for which the 50% inhibitory concentration (IC50) at human H3 receptor [1] is 1 nM; at human H3 receptor [2] it was 4 nM.
Consider `Cn1cccc1CNC(=O)c1ccc2c(c1)CCN(C1CCC1)CC2` [Example 111, 3-Cyclobutyl-N-((1-methyl-1H-pyrrol-2-yl)methyl)-2,3,4,5-tetrahydro-1H-benzo[d]azepine-7-carboxamide], for which the IC50 on human H3 receptor [1] and on human H3 receptor [2] was 7 nM each time.
Take `Cn1cncc1CNC(=O)c1ccc2c(c1)CCN(C1CCC1)CC2` [Example 114, 3-Cyclobutyl-N-((1-methyl-1H-imidazol-5-yl)methyl)-2,3,4,5-tetrahydro-1H-benzo[d]azepine-7-carboxamide]: the half-inhibitory concentration (IC50) was determined as 12 nM at human H3 receptor [1] and 19 nM on human H3 receptor [2].
The matching figures for `Cn1ccc(CCC(=O)c2ccc3c(c2)CCN(C2CCC2)CC3)n1` [Example 134, 1-(3-cyclobutyl-2,3,4,5-tetrahydro-1H-benzo[d]azepin-7-yl)-3-(1-methyl-1H-pyrazol-3-yl)propan-1-one]: 13 nM and 1 nM.
Consider `OC(Cc1ccc2c(c1)CCN(C1CCC1)CC2)c1ccccn1` (stereo not drawn) [Example 143, 2-(3-cyclobutyl-2,3,4,5-tetrahydro-1H-benzo[d]azepin-7-yl)-1-(pyridin-2-yl)ethanol], for which the 50% inhibitory concentration (IC50) came out at 24 nM at human H3 receptor [1] and 7 nM at human H3 receptor [2].
Taken in the same sequence, the figures for `CC(=O)N1CCCC(CNC(=O)c2ccc3c(c2)CCN(C2CCC2)CC3)C1` (stereo not drawn) [Example 164, N-((1-acetylpiperidin-3-yl)methyl)-3-cyclobutyl-2,3,4,5-tetrahydro-1H-benzo[d]azepine-7-carboxamide] were 10 nM and 5 nM.
In the case of `NC(=O)c1ccc2c(c1)CCN(C1CCC1)CC2` [Example 167, 3-cyclobutyl-2,3,4,5-tetrahydro-1H-benzo[d]azepine-7-carboxamide], the IC50 was 22 nM at human H3 receptor [1] and 71 nM at human H3 receptor [2].
The matching figures for `O=C(NCC1CCS(=O)(=O)C1)c1ccc2c(c1)CCN(C1CCC1)CC2` (stereo not drawn) [Example 171, 3-Cyclobutyl-2,3,4,5-tetrahydro-1H-benzo[d]azepine-7-carboxylic acid (1,1-dioxo-tetrahydro-1lambda*6*-thiophen-3-ylmethyl)-amide]: 14 nM and 4 nM.
The matching figures for `O=C(NCc1ccc2c(c1)CCN(C1CCC1)CC2)c1cnccn1` [Example 181, N-((3-cyclobutyl-2,3,4,5-tetrahydro-1H-benzo[d]azepin-7-yl)methyl)pyrazine-2-carboxamide]: 21 nM and 4 nM.
The matching figures for `O=C(NCc1ccc2c(c1)CCN(C1CCC1)CC2)c1cncc(F)c1` [Example 191, N-((3-cyclobutyl-2,3,4,5-tetrahydro-1H-benzo[d]azepin-7-yl)methyl)-5-fluoronicotinamide]: 13 nM and 2 nM.
Consider `O=C(NCc1ccc2c(c1)CCN(C1CCC1)CC2)N1CCCC1` [Example 194, N-((3-cyclobutyl-2,3,4,5-tetrahydro-1H-benzo[d]azepin-7-yl)methyl)pyrrolidine-1-carboxamide], for which the half-inhibitory concentration (IC50) came out at 26 nM on human H3 receptor [1] and 7 nM on human H3 receptor [2].
As for `Cc1ncc(C(=O)NCc2ccc3c(c2)CCN(C2CCC2)CC3)cn1` [Example 211, N-((3-cyclobutyl-2,3,4,5-tetrahydro-1H-benzo[d]azepin-7-yl)methyl)-2-methylpyrimidine-5-carboxamide], the figures for the IC50 at human H3 receptor [1] and at human H3 receptor [2] were 6 nM and 9 nM, respectively.
Taken in the same sequence, the figures for `CC(C)(O)CC(=O)NCc1ccc2c(c1)CCN(C1CCC1)CC2` [Example 216, N-((3-cyclobutyl-2,3,4,5-tetrahydro-1H-benzo[d]azepin-7-yl)methyl)-3-hydroxy-3-methylbutanamide] were 41 nM and 20 nM.
Taken in the same sequence, the figures for `Cn1nccc1NC(=O)Cc1ccc2c(c1)CCN(C1CCC1)CC2` [Example 221, 2-(3-cyclobutyl-2,3,4,5-tetrahydro-1H-benzo[d]azepin-7-yl)-N-(1-methyl-1H-pyrazol-5-yl)acetamide] were 11 nM and 3 nM.
Taken in the same sequence, the figures for `O=C(Cc1ccc2c(c1)CCN(C1CCC1)CC2)Nc1cccnc1` [Example 224, 2-(3-cyclobutyl-2,3,4,5-tetrahydro-1H-benzo[d]azepin-7-yl)-N-(pyridin-3-yl)acetamide] were 2 nM and 4 nM.

Source of the values: patent US20110124626A1, “BENZAZEPINE DERIVATIVES AND THEIR USE AS HISTAMINE H3 ANTAGONISTS” (TAKEDA PHARMACEUTICAL COMPANY LIMITED, priority 2008, published 2011).
